≈ marks a conversion by molar mass, not a printed value. Read-outs that look alike come from different tables or passages of the source. Positions of bridges follow the written chain, without caps; N, C: chain ends. Non-standard residues stand in square brackets, D forms with d. Residues, ends and D or L forms follow the SMILES beside them. *: point of attachment. Ethyl(2-decanoyloxy) = CCCCCCCCCC(=O)OCC*; Ethyl(2-butanoyloxy) = CCCC(=O)OCC*; Ethyl(2-propionyloxy) = CCC(=O)OCC*; Ethyl(2-OPiv) = CC(C)(C)C(=O)OCC*; Ethyl(2-OBz) = O=C(OCC*)c1ccccc1; hCys = N[C@@H](CCS)C(=O)O; Octanoyl = CCCCCCCC(=O)*; Dab = NCC[C@H](N)C(=O)O; Dap = NC[C@H](N)C(=O)O; Mpa = O=C(O)CCS
Key:
E. coli ATCC 25922 = assay type: cell-based, Escherichia coli
From the text: (§1) All 81 compounds prepared in Examples 2 and 3 underwent screening against a panel of Gram-negative bacterium to assess their ability to inhibit bacterial growth. […] The median value is presented.

K. pneumoniae ATCC 33495 = assay type: cell-based, Klebsiella pneumoniae
From the text: as §1

[1] = tested on: K. pneumoniae ATCC MS6671; assay type: cell-based, Klebsiella pneumoniae
From the text: as §1

[2] = tested on: K. pneumoniae ATCC 700603; assay type: cell-based, Klebsiella pneumoniae
From the text: as §1

P. aeruginosa ATCC 27853 = assay type: cell-based, Pseudomonas aeruginosa
From the text: as §1

A. baumannii ATCC 19606 = assay type: cell-based, Acinetobacter baumannii
From the text: as §1

E. coli ATCC MS8345 = assay type: cell-based, Escherichia coli
From the text: as §1
Expansion of the polymyxin macrocycle by substituting […]) offered little advantage in antimicrobial activity but was generally well tolerated although for A. baumanni and P. aeruginosa this was detrimental.

Row | SMILES | MIC E. coli ATCC 25922 (E. coli ATCC 25922; ATCC 25922) | MIC K. pneumoniae ATCC 33495 (K. pneumoniae ATCC 33495; ATCC 33495) | MIC K. pneumoniae ATCC MS6671 ([1]; ATCC MS6671) | MIC K. pneumoniae ATCC 700603 ([2]; ATCC 700603) | MIC P. aeruginosa ATCC 27853 (P. aeruginosa ATCC 27853; ATCC 27853) | MIC A. baumannii ATCC 19606 (A. baumannii ATCC 19606; ATCC 19606) | MIC E. coli ATCC MS8345 (E. coli ATCC MS8345; ATCC MS8345) | further results
1 | CCC(=O)OCCSC[C@H](N)C(=O)N[C@@H](CCN)C(=O)N[C@H](C(=O)N[C@@H](CCN)C(=O)N[C@H]1CCCCNC(=O)[C@H]([C@@H](C)O)NC(=O)[C@H](CCN)NC(=O)[C@H](CCN)NC(=O)[C@H](CC(C)C)NC(=O)[C@@H](Cc2ccccc2)NC(=O)[C@H](CCN)NC1=O)[C@@H](C)O [Compound 23] (H-C(Ethyl(2-propionyloxy))[Dab]T[Dab]K[Dab][dF]L[Dab][Dab]T; lactam 5-C) | 4 µg/mL (≈ 3.09 µM) | 4 µg/mL (≈ 3.09 µM) | >32 µg/mL | >32 µg/mL | >32 µg/mL | >32 µg/mL | >32 µg/mL | –
2 | CCCC(=O)OCCSC[C@H](N)C(=O)N[C@@H](CCN)C(=O)N[C@H](C(=O)N[C@@H](CCN)C(=O)N[C@H]1CCCCNC(=O)[C@H]([C@@H](C)O)NC(=O)[C@H](CCN)NC(=O)[C@H](CCN)NC(=O)[C@H](CC(C)C)NC(=O)[C@@H](Cc2ccccc2)NC(=O)[C@H](CCN)NC1=O)[C@@H](C)O [Compound 24] (H-C(Ethyl(2-butanoyloxy))[Dab]T[Dab]K[Dab][dF]L[Dab][Dab]T; lactam 5-C) | 2 µg/mL (≈ 1.53 µM) | 1 µg/mL (≈ 0.764 µM) | >32 µg/mL | – | >32 µg/mL | >32 µg/mL | >32 µg/mL | –
3 | CCCCCCCCCC(=O)OCCSC[C@H](N)C(=O)N[C@@H](CCN)C(=O)N[C@H](C(=O)N[C@@H](CCN)C(=O)N[C@H]1CCCCNC(=O)[C@H]([C@@H](C)O)NC(=O)[C@H](CCN)NC(=O)[C@H](CCN)NC(=O)[C@H](CC(C)C)NC(=O)[C@@H](Cc2ccccc2)NC(=O)[C@H](CCN)NC1=O)[C@@H](C)O [Compound 25] (H-C(Ethyl(2-decanoyloxy))[Dab]T[Dab]K[Dab][dF]L[Dab][Dab]T; lactam 5-C) | 2 µg/mL (≈ 1.44 µM) | 0.5 µg/mL (≈ 0.359 µM) | >32 µg/mL | 2 µg/mL (≈ 1.44 µM) | 0.5 µg/mL (≈ 0.359 µM) | >32 µg/mL | 16 to 32 µg/mL | –
4 | CC(C)C[C@@H]1NC(=O)[C@@H](Cc2ccccc2)NC(=O)[C@H](CCN)NC(=O)[C@@H](NC(=O)[C@H](CCN)NC(=O)[C@@H](NC(=O)[C@H](CCN)NC(=O)[C@@H](N)CSCCOC(=O)C(C)(C)C)[C@@H](C)O)CCCCNC(=O)[C@H]([C@@H](C)O)NC(=O)[C@H](CCN)NC(=O)[C@H](CCN)NC1=O [Compound 26] (H-C(Ethyl(2-OPiv))[Dab]T[Dab]K[Dab][dF]L[Dab][Dab]T; lactam 5-C) | 1 µg/mL (≈ 0.756 µM) | 0.5 µg/mL (≈ 0.378 µM) | >32 µg/mL | 16 µg/mL (≈ 12.1 µM) | >32 µg/mL | >32 µg/mL | >32 µg/mL | –
5 | CC(C)C[C@@H]1NC(=O)[C@@H](Cc2ccccc2)NC(=O)[C@H](CCN)NC(=O)[C@@H](NC(=O)[C@H](CCN)NC(=O)[C@@H](NC(=O)[C@H](CCN)NC(=O)[C@@H](N)CSCCOC(=O)c2ccccc2)[C@@H](C)O)CCCCNC(=O)[C@H]([C@@H](C)O)NC(=O)[C@H](CCN)NC(=O)[C@H](CCN)NC1=O [Compound 27] (H-C(Ethyl(2-OBz))[Dab]T[Dab]K[Dab][dF]L[Dab][Dab]T; lactam 5-C) | – | – | – | – | – | – | – | MIC E. coli ATCC 25922 (E. coli ATCC 25922; median of triplicate): 1 µg/mL (≈ 0.745 µM); MIC K. pneumoniae ATCC 33495 (K. pneumoniae ATCC 33495; median of triplicate): 0.5 µg/mL (≈ 0.372 µM); MIC K. pneumoniae ATCC MS6671 ([1]; median of triplicate): >32 µg/mL; MIC K. pneumoniae ATCC 700603 ([2]; median of triplicate): 2 to 4 µg/mL; MIC P. aeruginosa ATCC 27853 (P. aeruginosa ATCC 27853; median of triplicate): >32 µg/mL; MIC A. baumannii ATCC 19606 (A. baumannii ATCC 19606; median of triplicate): >32 µg/mL; MIC E. coli ATCC MS8345 (E. coli ATCC MS8345; colistin-resistant strain, median of triplicate): >32 µg/mL
6 | CCC(=O)OCCSC[C@@H](N)C(=O)N[C@@H](CCN)C(=O)N[C@H](C(=O)N[C@@H](CCN)C(=O)N[C@H]1CCNC(=O)[C@H]([C@@H](C)O)NC(=O)[C@H](CCN)NC(=O)[C@H](CCN)NC(=O)[C@H](CC(C)C)NC(=O)[C@@H](Cc2ccccc2)NC(=O)[C@H](CCN)NC1=O)[C@@H](C)O [Compound 58] (H-[dC](Ethyl(2-propionyloxy))[Dab]T[Dab][Dab][Dab][dF]L[Dab][Dab]T; lactam 5-C) | 2 µg/mL (≈ 1.58 µM) | 2 µg/mL (≈ 1.58 µM) | >32 µg/mL | 4 µg/mL (≈ 3.16 µM) | 2 µg/mL (≈ 1.58 µM) | >32 µg/mL | – | –
7 | CCC(=O)OCCSCCC(=O)N[C@H](C(=O)N[C@@H](CN)C(=O)N[C@H]1CCNC(=O)[C@H]([C@@H](C)O)NC(=O)[C@H](CCN)NC(=O)[C@H](CCN)NC(=O)[C@H](CC(C)C)NC(=O)[C@@H](Cc2ccccc2)NC(=O)[C@H](CCN)NC1=O)[C@@H](C)O [Compound 83] ([Mpa](Ethyl(2-propionyloxy))T[Dap][Dab][Dab][dF]L[Dab][Dab]T; lactam 4-C) | 2 µg/mL (≈ 1.76 µM) | – | – | – | – | – | – | –
8 | CCC(=O)OCCSCC[C@H](N)C(=O)N[C@H](C(=O)N[C@@H](CN)C(=O)N[C@H]1CCNC(=O)[C@H]([C@@H](C)O)NC(=O)[C@H](CCN)NC(=O)[C@H](CCN)NC(=O)[C@H](CC(C)C)NC(=O)[C@@H](Cc2ccccc2)NC(=O)[C@H](CCN)NC1=O)[C@@H](C)O [Compound 84] (H-[hCys](Ethyl(2-propionyloxy))T[Dap][Dab][Dab][dF]L[Dab][Dab]T; lactam 4-C) | 32 µg/mL (≈ 27.4 µM) | – | – | – | – | – | – | –
9 | CCC(=O)OCCSC[C@H](N)C(=O)N[C@H](C(=O)N[C@H](CO)C(=O)N[C@H]1CCNC(=O)[C@H]([C@@H](C)O)NC(=O)[C@H](CCN)NC(=O)[C@H](CCN)NC(=O)[C@H](CC(C)C)NC(=O)[C@@H](Cc2ccccc2)NC(=O)[C@H](CCN)NC1=O)[C@@H](C)O [Compound 85] (H-C(Ethyl(2-propionyloxy))T[dS][Dab][Dab][dF]L[Dab][Dab]T; lactam 4-C) | >128 µg/mL | – | – | – | – | – | – | –
10 | CCC(=O)OCCSC[C@@H](N)C(=O)N[C@H](C(=O)N[C@H](CO)C(=O)N[C@H]1CCNC(=O)[C@H]([C@@H](C)O)NC(=O)[C@H](CCN)NC(=O)[C@H](CCN)NC(=O)[C@H](CC(C)C)NC(=O)[C@@H](Cc2ccccc2)NC(=O)[C@H](CCN)NC1=O)[C@@H](C)O [Compound 86] (H-[dC](Ethyl(2-propionyloxy))T[dS][Dab][Dab][dF]L[Dab][Dab]T; lactam 4-C) | 2 µg/mL (≈ 1.73 µM) | – | – | – | – | – | – | –
11 | CCC(=O)OCCSCCC(=O)N[C@H](C(=O)N[C@H](CO)C(=O)N[C@H]1CCNC(=O)[C@H]([C@@H](C)O)NC(=O)[C@H](CCN)NC(=O)[C@H](CCN)NC(=O)[C@H](CC(C)C)NC(=O)[C@@H](Cc2ccccc2)NC(=O)[C@H](CCN)NC1=O)[C@@H](C)O [Compound 87] ([Mpa](Ethyl(2-propionyloxy))T[dS][Dab][Dab][dF]L[Dab][Dab]T; lactam 4-C) | 16 µg/mL (≈ 14.1 µM) | – | – | – | – | – | – | –
12 | CCC(=O)OCCSCC[C@H](N)C(=O)N[C@H](C(=O)N[C@H](CO)C(=O)N[C@H]1CCNC(=O)[C@H]([C@@H](C)O)NC(=O)[C@H](CCN)NC(=O)[C@H](CCN)NC(=O)[C@H](CC(C)C)NC(=O)[C@@H](Cc2ccccc2)NC(=O)[C@H](CCN)NC1=O)[C@@H](C)O [Compound 88] (H-[hCys](Ethyl(2-propionyloxy))T[dS][Dab][Dab][dF]L[Dab][Dab]T; lactam 4-C) | >64 µg/mL | – | – | – | – | – | – | –
13 | CCCC(=O)OCCSC[C@@H](N)C(=O)N[C@H](C(=O)N[C@@H](CCN)C(=O)N[C@H]1CCNC(=O)[C@H]([C@@H](C)O)NC(=O)[C@H](CCN)NC(=O)[C@H](CCN)NC(=O)[C@H](CC(C)C)NC(=O)[C@@H](Cc2ccccc2)NC(=O)[C@H](CCN)NC1=O)[C@@H](C)O [Compound 89] (H-[dC](Ethyl(2-butanoyloxy))T[Dab][Dab][Dab][dF]L[Dab][Dab]T; lactam 4-C) | – | 1 µg/mL (≈ 0.847 µM) | >32 µg/mL | 1 µg/mL (≈ 0.847 µM) | 2 µg/mL (≈ 1.69 µM) | 4 µg/mL (≈ 3.39 µM) | 32 µg/mL (≈ 27.1 µM) | –
14 | CCCCCCCC(=O)N[C@@H](CCN)C(=O)N[C@H](C(=O)N[C@@H](CCN)C(=O)N[C@H]1CCNC(=O)[C@H]([C@@H](C)O)NC(=O)[C@H](CCN)NC(=O)[C@H](CCN)NC(=O)[C@H](CC(C)C)NC(=O)[C@@H](Cc2ccccc2)NC(=O)[C@H](CCN)NC1=O)[C@@H](C)O [polymyxin B3, reference compound] (Octanoyl-[Dab]T[Dab][Dab][Dab][dF]L[Dab][Dab]T; lactam 4-C (inferred); N-terminus assumed) | – | – | – | – | – | – | – | activity against E. coli (MIC) (E. coli ATCC 25922; ATCC 25922): 0.25 µg/mL
